Assay results from article PMC10482691, “LTP induction by structural rather than enzymatic functions of CaMKII” (Nature, 2023).
Several values for one entry are separate records, joined by “and”; a condition that tells them apart may be missing. Equal entries are not always repeated.

Experiments:
CaMKI(h) = CaMKI(h) (Homo sapiens, UniProt Q14012); assay: Kinase selectivity panel (residual activity at 1 μM); format: biochemical; details: inhibitor at 1 μM; read-out: residual kinase activity in % of maximal activity
[1] = tested on: GFP–CaMKII in rat hippocampal neurons; assay: cLTP-induced CaMKII synaptic enrichment in dissociated hippocampal cultures (GFP–CaMKII WT); format: cell-based; details: for CaMKII synaptic enrichment: GFP-CaMKII WT, individual neurons, sheet 4e
p70S6K(h) = p70S6K(h) (Homo sapiens, UniProt P23443); assay: Kinase selectivity panel (residual activity at 1 μM); format: biochemical; details: inhibitor at 1 μM; read-out: residual kinase activity in % of maximal activity
JAK3(h) = JAK3(h) (Homo sapiens, UniProt P52333); assay: as above; format: biochemical; details: inhibitor at 1 μM; read-out: residual kinase activity in % of maximal activity
GSK3β(h) = GSK3β(h) (Homo sapiens, UniProt P49841); assay: as above; format: biochemical; details: inhibitor at 1 μM; read-out: residual kinase activity in % of maximal activity
mTOR(h) = mTOR(h) (Homo sapiens, UniProt P42345); assay: as above; format: biochemical; details: inhibitor at 1 μM; read-out: residual kinase activity in % of maximal activity
CDK2/cyclinE(h) = CDK2/cyclinE(h) (Homo sapiens, UniProt P24941); assay: as above; format: biochemical; details: inhibitor at 1 μM
PKCδ(h) = PKCδ(h) (Homo sapiens, UniProt Q05655); assay: as above; format: biochemical; details: inhibitor at 1 μM; read-out: residual kinase activity in % of maximal activity
Arg(h) = Arg(h) (Homo sapiens, UniProt P42684); assay: as above; format: biochemical; details: inhibitor at 1 μM; read-out: residual kinase activity in % of maximal activity
purified CaMKIIα = purified CaMKIIα (Rattus norvegicus, UniProt P11275); assay: In vitro kinase reaction: CaMKIIα phosphorylation of GST–GluA1 S831; format: biochemical; details: 30 °C, 1 mM ATP, Ki from IC50 with Km ATP 33.3 μM, read-out: apparent inhibitor constant (Ki), pS831
Description: Data are presented as mean values ± s.e.m. a, Schematic of the AS283 inhibitor mechanism of action: ATP-competitive inhibition blocks enzymatic activity while mimicking the nucleotide binding requirement to allow interaction with GluN2B. b, Representative immunoblot and quantification of in vitro kinase reactions at 30 °C in 1 mM ATP measuring purified CaMKIIα phosphorylation of GST–GluA1 S831 with varying concentrations of AS283 (0.41–10 μM; n = 4 independent concentration curves). For a negative control (Neg.), ATP was omitted. […] ADP:AS283 P = 0.0697; ADP:tatCN21 P < 0.0001. ***P < 0.001. d, Confocal microscopy images of HEK293 cells co-expressing GFP–CaMKII and mCherry-2BC. […] CaMKII synaptic enrichment was measured before and after cLTP (n = 14,9 cells; RM two-way ANOVA with Šídák’s multiple comparisons test). […]
CaMKII-mediated phosphorylation of GluA1 S831 or GluN2B S1303 was measured by in vitro kinase reaction with a purified GST–GluA1 C-terminal tail or GST-GluN2B C-terminal tail. […] GST, phospho-S831, CaMKII, phospho-T286 or phospho-S1303 were detected in the samples by immunoblot analysis.
The inhibition constant Ki was calculated using the Cheng–Prusoff equation for competitive inhibition: Ki = IC50/(1 + [ATP]/Km).

CaMKIIγ(h) = CaMKIIγ(h) (Homo sapiens, UniProt Q13555); assay: Kinase selectivity panel (residual activity at 1 μM); format: biochemical; details: inhibitor at 1 μM; read-out: residual kinase activity in % of maximal activity
JNK2α2(h) = JNK2α2(h) (Homo sapiens, UniProt P45984); assay: as above; format: biochemical; details: inhibitor at 1 μM
[2] = target: GFP–CaMKII WT / mCh-GluN2B-c tail in HEK293 cells (Homo sapiens, UniProt Q9UQM7); assay: Ionomycin-induced colocalization of GFP–CaMKII WT and mCherry-2BC in HEK293 cells; format: cell-based; details: 10 μM AS283
Description: HEK cells were grown and transfected with expression vectors for GFP–CaMKII mutants and pDisplay-mCh-GluN2B-c tail (2BC) as previously described[24],[57]; the GluN2B construct used included an S1303A mutation to avoid potential complications by differential phosphorylation of this regulatory site[13],[27] in the different conditions with or without kinase inhibitors. GFP–CaMKII colocalization with GluN2B in response to a Ca^2+ stimulus induced by 10 μM ionomycin was monitored for 5–10 min at 32 °C in imaging buffer (0.87× Hanks Balanced Salt Solution, 25 mM HEPES, pH 7.4, 2 mM glucose, 2 mM CaCl2, 1 mM MgCl2) by fluorescence microscopy. Images were acquired on a Zeiss Axiovert 200M equipped with a climate control chamber using SlideBook software (Intelligent Imaging Innovations; v.6.0). Colocalization analysis was performed by calculating the Pearson’s correlation (correlation index) with ImageJ of pDisplay-mCh-2BC and GFP–CaMKII within the cytoplasm of HEK cells after background subtraction.

SGK(h) = SGK(h) (Homo sapiens, UniProt O00141); assay: Kinase selectivity panel (residual activity at 1 μM); format: biochemical; details: inhibitor at 1 μM; read-out: residual kinase activity in % of maximal activity
GSK3α(h) = GSK3α(h) (Homo sapiens, UniProt P49840); assay: as above; format: biochemical; details: inhibitor at 1 μM; read-out: residual kinase activity in % of maximal activity
KDR(h) = KDR(h) (Homo sapiens, UniProt P35968); assay: as above; format: biochemical; details: inhibitor at 1 μM; read-out: residual kinase activity in % of maximal activity
[3] = tested on: GFP–CaMKII F89G in rat hippocampal neurons; assay: cLTP-induced CaMKII synaptic enrichment in dissociated hippocampal cultures (GFP–CaMKII F89G); format: cell-based; details: for CaMKII synaptic enrichment: GFP-CaMKII F89G, individual neurons, sheet 4e

GSK3β(h), sequence (P49841 whole entry): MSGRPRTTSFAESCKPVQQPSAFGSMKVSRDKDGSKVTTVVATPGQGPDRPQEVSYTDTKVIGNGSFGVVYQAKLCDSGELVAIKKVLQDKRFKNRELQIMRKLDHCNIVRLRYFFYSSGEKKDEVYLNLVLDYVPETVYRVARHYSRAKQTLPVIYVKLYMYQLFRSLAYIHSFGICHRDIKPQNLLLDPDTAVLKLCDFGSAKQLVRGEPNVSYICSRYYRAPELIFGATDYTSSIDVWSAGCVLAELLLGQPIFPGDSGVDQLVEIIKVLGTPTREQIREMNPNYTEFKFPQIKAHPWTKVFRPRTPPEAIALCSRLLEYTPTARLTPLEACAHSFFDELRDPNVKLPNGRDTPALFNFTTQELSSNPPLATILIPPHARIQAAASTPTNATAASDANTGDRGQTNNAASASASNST
JNK2α2(h), sequence (P45984 whole entry): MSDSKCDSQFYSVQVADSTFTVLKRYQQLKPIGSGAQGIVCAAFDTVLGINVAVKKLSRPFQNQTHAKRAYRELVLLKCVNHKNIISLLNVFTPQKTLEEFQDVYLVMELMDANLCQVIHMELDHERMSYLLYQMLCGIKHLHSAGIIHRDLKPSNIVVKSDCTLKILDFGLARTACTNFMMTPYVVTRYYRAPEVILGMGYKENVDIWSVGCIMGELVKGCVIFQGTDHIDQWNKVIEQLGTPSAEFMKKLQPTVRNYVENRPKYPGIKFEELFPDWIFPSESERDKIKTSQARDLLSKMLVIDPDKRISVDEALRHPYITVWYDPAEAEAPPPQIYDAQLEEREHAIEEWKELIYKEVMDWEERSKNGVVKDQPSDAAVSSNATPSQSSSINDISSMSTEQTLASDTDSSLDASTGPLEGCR
KDR(h), sequence (P35968 20-1356): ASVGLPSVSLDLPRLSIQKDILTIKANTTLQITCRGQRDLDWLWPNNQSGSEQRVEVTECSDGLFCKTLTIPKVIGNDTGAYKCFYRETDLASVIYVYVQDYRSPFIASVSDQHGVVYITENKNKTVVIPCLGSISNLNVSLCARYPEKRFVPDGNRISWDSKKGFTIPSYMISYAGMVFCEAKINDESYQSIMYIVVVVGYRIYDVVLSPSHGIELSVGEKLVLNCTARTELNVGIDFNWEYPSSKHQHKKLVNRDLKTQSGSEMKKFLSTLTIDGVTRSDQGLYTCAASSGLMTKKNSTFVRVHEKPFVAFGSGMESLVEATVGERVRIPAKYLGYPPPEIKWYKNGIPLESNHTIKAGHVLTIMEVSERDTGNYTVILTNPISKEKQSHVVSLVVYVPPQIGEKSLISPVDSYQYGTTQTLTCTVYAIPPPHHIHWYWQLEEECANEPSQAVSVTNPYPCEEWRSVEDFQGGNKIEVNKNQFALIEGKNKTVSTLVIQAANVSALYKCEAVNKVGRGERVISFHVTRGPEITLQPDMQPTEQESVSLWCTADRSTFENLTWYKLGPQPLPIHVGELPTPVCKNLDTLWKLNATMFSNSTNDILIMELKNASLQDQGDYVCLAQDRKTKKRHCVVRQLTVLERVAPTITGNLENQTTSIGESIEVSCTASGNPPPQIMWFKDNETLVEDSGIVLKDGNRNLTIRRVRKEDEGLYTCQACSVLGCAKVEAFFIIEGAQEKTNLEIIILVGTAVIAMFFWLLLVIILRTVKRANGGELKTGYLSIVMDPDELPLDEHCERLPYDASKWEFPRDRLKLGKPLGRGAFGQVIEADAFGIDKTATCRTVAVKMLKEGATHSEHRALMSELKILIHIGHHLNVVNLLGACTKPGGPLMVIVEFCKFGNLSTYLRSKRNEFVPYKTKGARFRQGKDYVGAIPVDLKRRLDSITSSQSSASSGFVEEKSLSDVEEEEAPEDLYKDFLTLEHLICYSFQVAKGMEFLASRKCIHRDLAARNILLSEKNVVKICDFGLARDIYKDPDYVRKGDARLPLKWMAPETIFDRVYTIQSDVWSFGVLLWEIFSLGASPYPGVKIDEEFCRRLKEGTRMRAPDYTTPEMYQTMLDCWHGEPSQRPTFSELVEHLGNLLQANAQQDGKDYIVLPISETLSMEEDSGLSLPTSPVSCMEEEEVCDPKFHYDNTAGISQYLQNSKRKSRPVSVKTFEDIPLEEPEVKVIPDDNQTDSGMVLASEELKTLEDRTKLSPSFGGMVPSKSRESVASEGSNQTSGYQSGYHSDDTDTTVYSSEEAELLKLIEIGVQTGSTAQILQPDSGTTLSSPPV
CaMKI(h), sequence (Q14012 whole entry): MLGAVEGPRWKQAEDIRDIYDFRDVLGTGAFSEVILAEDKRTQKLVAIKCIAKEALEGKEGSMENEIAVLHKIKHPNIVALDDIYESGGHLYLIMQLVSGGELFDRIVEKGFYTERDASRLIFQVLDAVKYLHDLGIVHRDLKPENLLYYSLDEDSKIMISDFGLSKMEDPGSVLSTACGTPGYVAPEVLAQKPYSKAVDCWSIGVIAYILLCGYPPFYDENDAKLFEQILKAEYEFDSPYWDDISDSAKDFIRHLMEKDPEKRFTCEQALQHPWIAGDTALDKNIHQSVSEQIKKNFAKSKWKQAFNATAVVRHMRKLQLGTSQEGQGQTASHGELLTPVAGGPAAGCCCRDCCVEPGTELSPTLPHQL
JAK3(h), sequence (P52333 whole entry): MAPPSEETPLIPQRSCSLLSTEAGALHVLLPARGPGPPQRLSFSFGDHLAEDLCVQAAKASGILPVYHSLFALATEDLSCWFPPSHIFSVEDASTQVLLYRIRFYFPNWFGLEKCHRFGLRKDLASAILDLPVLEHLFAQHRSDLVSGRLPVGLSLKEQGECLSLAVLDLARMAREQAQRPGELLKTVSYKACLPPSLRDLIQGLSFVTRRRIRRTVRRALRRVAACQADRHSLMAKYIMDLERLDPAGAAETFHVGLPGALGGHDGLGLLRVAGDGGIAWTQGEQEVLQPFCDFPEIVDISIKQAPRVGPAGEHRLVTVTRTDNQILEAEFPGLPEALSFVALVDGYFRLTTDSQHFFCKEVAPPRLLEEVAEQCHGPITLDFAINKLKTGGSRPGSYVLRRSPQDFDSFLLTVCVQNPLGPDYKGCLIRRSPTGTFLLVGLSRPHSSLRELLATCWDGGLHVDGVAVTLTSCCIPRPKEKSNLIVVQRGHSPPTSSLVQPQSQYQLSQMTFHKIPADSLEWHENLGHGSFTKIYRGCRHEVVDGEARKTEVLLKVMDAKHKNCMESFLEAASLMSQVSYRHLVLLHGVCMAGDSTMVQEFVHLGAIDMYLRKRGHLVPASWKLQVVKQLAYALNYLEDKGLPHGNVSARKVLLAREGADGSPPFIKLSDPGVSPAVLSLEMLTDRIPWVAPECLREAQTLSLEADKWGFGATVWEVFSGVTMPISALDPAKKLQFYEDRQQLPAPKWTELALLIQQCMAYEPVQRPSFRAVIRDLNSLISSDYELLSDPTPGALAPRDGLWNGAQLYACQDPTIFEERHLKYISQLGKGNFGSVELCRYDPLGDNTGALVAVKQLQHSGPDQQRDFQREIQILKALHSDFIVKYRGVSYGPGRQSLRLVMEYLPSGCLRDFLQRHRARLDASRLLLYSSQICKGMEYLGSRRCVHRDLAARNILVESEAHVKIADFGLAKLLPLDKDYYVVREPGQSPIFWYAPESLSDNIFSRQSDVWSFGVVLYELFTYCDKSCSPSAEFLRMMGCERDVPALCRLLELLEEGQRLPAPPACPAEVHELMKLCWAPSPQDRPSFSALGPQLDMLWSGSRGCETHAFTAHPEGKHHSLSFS
CaMKIIγ(h), sequence (Q13555 whole entry): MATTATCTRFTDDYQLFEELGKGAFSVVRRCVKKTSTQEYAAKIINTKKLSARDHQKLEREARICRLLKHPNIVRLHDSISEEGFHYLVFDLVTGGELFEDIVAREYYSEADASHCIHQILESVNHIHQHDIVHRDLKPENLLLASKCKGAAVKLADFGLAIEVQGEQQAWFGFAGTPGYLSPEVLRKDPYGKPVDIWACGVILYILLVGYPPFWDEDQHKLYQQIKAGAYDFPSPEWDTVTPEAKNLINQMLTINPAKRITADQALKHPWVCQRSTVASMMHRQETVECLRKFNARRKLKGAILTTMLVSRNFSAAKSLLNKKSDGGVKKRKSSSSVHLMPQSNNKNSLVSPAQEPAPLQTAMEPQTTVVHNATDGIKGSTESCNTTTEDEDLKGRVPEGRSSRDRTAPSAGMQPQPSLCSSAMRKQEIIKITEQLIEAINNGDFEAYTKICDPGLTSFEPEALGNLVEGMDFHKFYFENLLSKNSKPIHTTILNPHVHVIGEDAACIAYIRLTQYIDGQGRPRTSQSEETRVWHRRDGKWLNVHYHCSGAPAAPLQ
p70S6K(h), sequence (P23443 whole entry): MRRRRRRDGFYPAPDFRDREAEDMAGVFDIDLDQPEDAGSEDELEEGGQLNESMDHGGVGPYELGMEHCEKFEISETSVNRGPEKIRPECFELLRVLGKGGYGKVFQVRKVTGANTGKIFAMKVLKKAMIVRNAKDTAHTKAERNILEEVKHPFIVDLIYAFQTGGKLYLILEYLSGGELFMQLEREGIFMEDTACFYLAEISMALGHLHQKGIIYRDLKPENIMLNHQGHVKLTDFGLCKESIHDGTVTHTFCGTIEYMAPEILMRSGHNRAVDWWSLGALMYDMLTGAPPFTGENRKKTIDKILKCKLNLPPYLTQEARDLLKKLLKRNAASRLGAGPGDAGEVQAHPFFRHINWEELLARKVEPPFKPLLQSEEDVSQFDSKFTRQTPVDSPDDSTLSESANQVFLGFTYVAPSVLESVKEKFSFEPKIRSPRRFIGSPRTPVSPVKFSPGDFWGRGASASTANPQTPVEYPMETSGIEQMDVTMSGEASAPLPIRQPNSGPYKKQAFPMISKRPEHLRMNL

NCCNc1cccc(-c2ccnc3[nH]c4ccccc4c23)c1 [AS283]
remaining activity at 1 µM (CaMKI(h)): 107% | effect on CaMKII movement to excitatory synapses in response to cLTP ([1]; AS283): did not interfere | remaining activity at 1 µM (p70S6K(h)): 18% | remaining activity at 1 µM (JAK3(h)): 92% | remaining activity at 1 µM (GSK3β(h)): 87% | remaining activity at 1 µM (mTOR(h)): 115% | residual kinase activity in % of maximal activity (CDK2/cyclinE(h)): 41% | remaining activity at 1 µM (PKCδ(h)): 39% | remaining activity at 1 µM (Arg(h)): 96% | Ki (purified CaMKIIα): 17 nM | remaining activity at 1 µM (CaMKIIγ(h)): 2% | residual kinase activity in % of maximal activity (JNK2α2(h)): 82% | effect on CaMKII binding to GluN2B in colocalization assay [2]: did not inhibit | remaining activity at 1 µM (SGK(h)): 86% | remaining activity at 1 µM (GSK3α(h)): 82% | remaining activity at 1 µM (KDR(h)): 15%

CC(C)(C)n1nc(Cc2cccc3ccccc23)c2c(N)ncnc21 [NM-PP1]
CaMKII synaptic enrichment ([1]; NMPP1, before cLTP): 1.457 and 1.288 and 1.299 and 1.252 and 1.168 and 1.649 | CaMKII synaptic enrichment ([1]; after cLTP in NMPP1): 2.238 and 1.828 and 2.413 and 1.827 and 1.651 and 2.282 | effect on impaired LTP-induced synaptic CaMKII localization ([3]; F89G mutant, 10 μM NM-PP1): rescued | CaMKII synaptic enrichment ([3]; NMPP1, before cLTP): 1.457 and 2.177 and 1.336 and 1.561 and 0.9177 and 1.552 | CaMKII synaptic enrichment ([3]; after cLTP in NMPP1): 2.238 and 2.292 and 2.101 and 2.038 and 1.685 and 2.186
